Each compound was assayed on HIV (assay: Inhibitory activity for HIV infection (protection of HIV-infected MT-4 cells from death)). Settings: 5 days incubation at 37° C., concentration preventing the death of 50% of the MT-4 cells.
Assay type: cell-based
Procedure: Inhibitory activity for HIV infection
(§1) In RPMI 1640 DM culture medium containing 20 mM of Hepes buffer solution, 10% fetal bovine serum and 20 μg/ml of gentamycin, 3×10^4 MT-4 cells (human T cell clone which is destroyed by the infection of HIV) were infected with HIV in an amount of 100 times as large as expected to cause 50% infection of the cells. Immediately thereafter, a predetermined amount of sample was added to the culture medium using 50 mg/ml sample solutions in dimethyl sulfoxide and the cells were cultured at 37° C.
(§2) After 5 days of incubation, the number of existing cells was counted to determine the concentration of the compound for preventing the death of 50% of the MT-4 cells. Separately, MT-4 cells were cultured in the same way as above except that they were not infected with HIV to determine the concentration of the compound at which 50% of the MT-4 cells were destroyed.

Compound	IC50 [nM]
1-(4-hydroxybutyl) -6-phenylthiothymine [Compound 31]	13000
1-(methylthiomethyl)-6-phenylthiothymine [Compound 32]	1200
1-[(2-acetoxyethoxy)methyl]-6-phenylthiothymine [Compound 2]	6700
1-[(2-phenylcarbamoyloxyethoxy) methyl]-6-m-tolylthiothymine [Compound 16]	21000
1-butyl-5-ethyl-6-phenylthiouracil [Compound 252]	16
1-ethoxymethyl-5-ethyl-6-phenylthiouracil [Compound 247]	16
COCn1c(Sc2ccccc2)c(C)c(=O)[nH]c1=O [Compound 22, 1-(methoxymethyl)-6-phenylthiothymine]	2100

Same assay, conditions: Human immunodeficiency virus 1, MT4, 120 h, 5 days incubation at 37° C., concentration preventing the death of 50% of the MT-4 cells

Compound	IC50 [nM]
CC(=O)OCCOCn1c(Sc2ccccc2)c(C)c(=O)[nH]c1=S [Compound 1, 1-[(2-acetoxyethoxy)methyl]-6-phenylthio-2-thiothymine]	2800
CCOCn1c(Sc2ccccc2)c(CC)c(=O)[nH]c1=S [Compound 358, 1-ethoxymethyl-5-ethyl-6-phenylthio-2-thiouracil]	26
CCOCn1c(Cc2ccccc2)c(CC)c(=O)[nH]c1=O [Compound 472, 6-benzyl-1-ethoxymethyl-5-ethyluracil]	41

What follows are compounds tested on MT-4 cells (assay: Cytotoxicity to MT-4 cells not infected with HIV). Settings: 5 days incubation, concentration at which 50% of the MT-4 cells were destroyed.
Assay type: cell-based
Procedure: as §1, §2

Compound	50% cytotoxic concentration to MT-4 cells [µM]
1-(4-hydroxybutyl) -6-phenylthiothymine [Compound 31]	249
